The subject of assay [1] is Mia PACA-2 cells. The assay is described as follows: Oligonucleosomal DNA fragmentation by cell death ELISA. The note with it: Mia PACA-2, 72 hours, with serum; DPI 15 μM, Tiron 10 mM, genistein 100 μM, trans-resveratrol 100 or 50 μM. It is filed as cell-based, human. How it is done:
Mia PACA-2 cells were cultured for 72 hours in the presence of serum with or without 15 μM DPI, 10 mM Tiron, 100 μM genistein, 100 μM or 50 μM trans-resveratrol, or a combination thereof. Oligonucleosomal DNA fragmentation was measured in cell lysates by cell death ELISA.
Annexin staining was conducted as described above. Cells were collected, washed with PBS, and centrifuged for 10 min at 200×g. DNA fragmentation was determined using Cell Death Detection ELISA Plus kit (Roche Molecular Biochemicals).
To determine the role of caspases in the effects of combinations of agents on apoptosis, the effects of caspase-3 activity (DEVDase activity) as well as the effect of the broad spectrum caspase inhibitor, Z-VAD, on apoptosis was measured. Specifically, Mia PACA-2 cells were cultured for 72 hours in the presence of serum with or without 100 μM Z-VAD, 15 μM DPI, 100 μM trans-resveratrol, 100 μM genistein, a combination of trans-resveratrol and DPI, and a combination of genistein and DPI. DEVDase activity was measured in whole cell lysates with a fluorimetric assay. DNA fragmentation was measured in cell lysates by cell death ELISA.
In particular, Mia PACA-2 cells were cultured for 72 hours in the presence of serum with or without 50 μM trans-resveratrol (RS), 15 μM DPI, a combination of DPI and trans-resveratrol (RS+DPI), 10 μM MG-132 alone and in combination with RS, DPI, and RS+DPI. Internucleosomal DNA fragmentation was measured in cell lysates by cell death ELISA.
For orientation: An ELISA detects its analyte on a solid surface through an enzyme-linked reagent.

Assay [2] relates to BSp73AS and Mia PACA-2 cells. The assay is described as follows: Caspase-3 activity and annexin staining with MG-132 (FIG. 14C). It is filed as cell-based. The note with it: polyphenols 100 μM, MG-132 20 μM.
Assay [3] concerns Mia PACA-2 cells. The assay is described as follows: Annexin staining (flow cytometry). Format: cell-based, human. The following applies: Mia PACA-2, 72 hours, 0-100 μM, no serum. As to the method:
BSp73AS cells are derived from a rat pancreatic carcinoma and both Mia PACA-2 and BSp73AS cells have mutated p53 and express K-ras. Human pancreatic carcinoma cell line Mia PACA-2 and rat pancreatic carcinoma BSp73AS were cultured in Dulbecco's Modified Eagle's Medium supplemented with 10% heat inactivated FBS, penicillin G (100 U/ml) and streptomycin ([…]) in a humidified atmosphere comprising 5% (v/v) CO2. When cells were 90% confluent they were detached, washed with alternating centrifugation and resuspension, plated and incubated in the same media without FBS and with the indicated concentrations of polyphenolic compounds or vehicle for up to 96 hours. Oligonucleotide DNA fragmentation, annexin staining, and PARP proteolysis assays were conducted as follows:
Mia PACA-2 cells were cultured for 72 hours in the presence of 0, 12, 24, 50, and 100 μM rutin, quercetin, or trans-resveratrol. About 1×10^6 cells as determined with a hemocytometer were analyzed for annexin-V binding using an Annexin V-FLUOS Staining Kit (Boehringer Mannheim, Germany). […] Cells were analyzed on a FACScan flow cytometer (Becton Dickinson Immunocytometry System, San Jose, Calif.) equipped with a […] air-cooled 488 nm argon-ion laser. […]
Background: A flow cytometer gives signals particle by particle.

A further assay relates to PARP. The assay is described as follows: PARP proteolysis (Western blot). Format: cell-based, human. The following applies: Mia PACA-2, 24 hours, 100 μM. As to the method:
BSp73AS cells were cultured for 6 hours and Mia PACA-2 cells were cultured for 24 hours in the presence or absence of 100 μM of each rutin, quercetin or trans-resveratrol and with or without 50 μM of each […]. The cells were washed twice with PBS and lysed by incubating for 20 minutes at 4° C. in lysis buffer comprising 0.15 M NaCl, 50 mM Tris (pH 7.2), 1% deoxycholic acid (wt/vol), 1% Triton X-100 (wt/vol), 0.1% […] (wt/vol) and 1 mM PMSF, as well as 5 μg/ml each of protease inhibitors, pepstatin, leupeptin, chymostatin, antipain, and aprotinin. Then the cell lysates were centrifuged for 20 minutes at 15,000 g at 4° C. The supernatants were separated by 4-20% SDS-PAGE for 2 hours at 120 V using precast Tris-glycine gels and a Mini-Cell gel apparatus (Novex, San Diego, Calif.). Separated proteins were electrophoretically transferred to a nitrocellulose membrane for 2 hours at 30 V using a Novex Blot Module (Novex, San Diego, Calif.). Nonspecific binding was blocked by 1 hour incubation of nitrocellulose membranes in 5% (wt/vol) nonfat dry milk in Tris-buffered saline (TBS; pH 7.5). Blots were then incubated overnight at 4° C. with rabbit polyclonal antibody against poly (ADP-ribose) polymerase (PARP) (Santa Cruz Biotechnology, Santa Cruz, Calif.) (1;3,000) in an antibody buffer comprising (1% (wt/vol) non-fat dry milk in TTBS (0.05% vol/vol) Tween-20 in TBS), washed 3 times with TTBS and finally incubated for 1 hour with a peroxidase-labeled secondary antibody in the antibody buffer. Blots were developed for visualization using ECL detection kit. To test for equal protein loading, the blots were stripped and re-probed with an antibody against tubulin. When processing of a protein was measured, a decrease in unprocessed full-length form was measured concomitantly with the increase in the cleaved, active form. The experiment was repeated 3 times with similar results.
A general note: A western blot detects proteins with antibodies after separation by electrophoresis.

Assay [4] concerns caspase-3. The assay is described as follows: Caspase-3 processing (Western blot). Format: cell-based, human. As to the method:
(§1) In order to determine the effect polyphenolic compounds have on caspase-3 activity, the following assay was conducted. BSp73AS cells were culture in the absence of serum or growth factors for 24 hours in 0, 10, 20, and 50 μM of trans-resveratrol and Mia PACA-2 -cells were cultured for 72 hours in the presences of 0, 10, 20, and 50 μM of tran-resveratrol. Cell lysates were then prepared and 50 μg protein aliquots were loaded per lane and blotted with rabbit polyclonal antibody against caspase-3 (Santa Cruz Biotechnology, Santa Cruz, Calif.). The experiment was repeated 3 times with similar results.

For assay [5], the system named is caspase-3. The assay is described as follows: Caspase-3 processing (Western blot). Format: cell-based, rat. The note with it: BSp73AS. How it is done: as §1

Entries after “also recorded” stand apart in the source; their conditions may differ.

Take `O=c1c(-c2ccc(O)cc2)coc2cc(O)cc(O)c12` [genistein]: the “oligonucleosomal DNA fragmentation (apoptosis)” value in the assay on Mia PACA-2 cells [1] is “either no or small effects”. The “apoptosis (annexin staining)” value in assay [2] is “causes significant apoptosis”.

In the case of `O=c1c(O)c(-c2ccc(O)c(O)c2)oc2cc(O)cc(O)c12` [quercetin], the “annexin staining (apoptosis)” value in the assay on Mia PACA-2 cells [3] was “increase annexin staining; also recorded: more potent in causing apoptosis than trans-resveratrol”. For the same molecule, in the assay with PARP, the PARP cleavage entry is “cleaved to its activated form”. Also, in the assay with caspase-3 [4] (Mia PACA-2, 72 hours (FIG. 7A)), the “lowest concentration with effect on caspase-3 conversion” value worked out at 20 µM. Moreover, the “conversion of caspase-3 from inactive to active form” value in the assay with caspase-3 [4] (Mia PACA-2, 72 hours, 0-50 μM (FIG. 7A)) was “convert caspase-3 from its inactive form (32 kDa doublet) to its active form (17 kDa)”.

For the molecule `Oc1ccc(/C=C/c2cc(O)cc(O)c2)cc1` [trans-resveratrol], the “annexin staining (apoptosis)” value in the assay with Mia PACA-2 cells [3] was “increase annexin staining”. In addition, the PARP cleavage entry in the assay with PARP is “cleaved to its activated form”. In the assay on Mia PACA-2 cells [1], the “oligonucleosomal DNA fragmentation (apoptosis)” value is recorded as “either no or small effects”. The “lowest concentration with effect on caspase-3 conversion” value in the assay with caspase-3 [5] (24 hours (FIG. 6A)) came to 20 µM. For the same molecule, in the assay with caspase-3 [5] (24 hours, no serum, 0-50 μM (FIG. 6A)), the “conversion of caspase-3 from inactive to active form” value is “convert caspase-3 from its inactive form (32 kDa doublet) to its active form (17 kDa)”.

For the origin of these results see patent US6953786B2, “Compositions comprising plant-derived polyphenolic compounds and inhibitors of reactive oxygen species and methods of using thereof” (The Regents of the University of California, priority 2002, dated 2005).
